7 molecules from patent US20260209152A1, “Substituted Hydroxystilbene Compounds and Derivatives, Synthesis and Uses Thereof” (Kynan Duke IP, LLC, priority 2019, published 2026) can be followed below.

Values joined by “and” are separate entries in the source; they are usually repeats but may differ in a detail not shown here. Equal entries are not always repeated. Where two headings read alike, the source gives them in different places.

Series [1] deals with CCL2 release from IL-4, IL-13, IL-22 and IFN-γ-stimulated primary human keratinocytes. As to the kind of experiment: Keratinocyte CCL2 release (LEO Pharma Open Innovation assay number 1280). The series is classed as cell-based. The settings on record: for EC50 / Emax: Homo sapiens, Keratinocyte; for Max Eff.: CCL2 (1280): highest effect as percentage of control maximum effect; for Emax: read-out: maximum efficacy, CCL2 secretion. As to the method: Inhibition of CCL2 release from IL-4, IL-13, IL-22 and IFN-γ-stimulated primary human keratinocytes LEO Pharma Open Innovation assay number 1280
The inflammatory skin disease atopic dermatitis (AD) is characterized by the T-cell cytokines including IL-4, IL-13, IL-22 and IFN-γ. In the present assay, keratinocytes are stimulated with a mixture of these cytokines, and the release of CCL2 (also called monocyte chemoattractant protein 1 (MCP-1)) is measured in the culture supernatant by proximity homogenous time-resolved fluorescence (HTRF). […] Compound which inhibit keratinocyte CCL2 secretion may be expected to have efficacy in atopic dermatitis.
HEKa are human epidermal keratinocytes isolated from adult skin. The cells have been cryopreserved at the end of the primary culture stage in a medium containing 10% DMSO. Sterile cell culture work applies.
• Trypsinize the cells as described above. • Resuspend pellet in 10 ml assay medium (EpiLife Medium with HKGS Kit but without hydrocortisone) • Filter the cells though a 37 µm strainer. • Count cells using a cell counter. • Seed HEKa cells in 384-well view plates 3500 c/w/40 μL. • Place the plates with lids on in a humidity chamber with lid (24.5×24.5 cm box added H2O in the bottom). • Incubate plates over night at 37° C., 5% CO2/95% air
• Prepare compound-containing source plate, i.e. titrations in DMSO to be transferred to the assay plate. • Add 80 nL compounds and controls from the source plate to the assay plate (with cells). • Add 40 μL stimulation (recombinant human interleukin (IL) 4, 13, 22 at 10 ng/mL and Interferon-gamma at 1 ng/mL) in medium with supplement, but without hydrocortisone. • Incubate plates at 37° C., 5% CO2/95% air for 2 days.
• Remove plates from incubation and equilibrate to room temperature for 30 minutes. • Transfer […] supernatant to white proxi 384-well plates for CCL2 detection. • Add […] media to the detection plate. • Add […] CCL2 HTRF detection reagent (to the white proxi 384w). • Seal and incubate for 4 hours and read in a plate reader.
CCL2 concentration in the supernatants is measured using homogeneous time-resolved fluorescence resonance (TR-FRET). The assay is quantified by measuring fluorescence at 665 nm (proportional to CCL2 concentration) and 620 nm (control). A ratio 665/620*1000 is calculated.

Series [2] concerns human CD4-positive T-cells. The series is described as follows: Cell viability in T-cell IL-2 & IL-4 assay (assay number 1299). As to conditions: Homo sapiens, CD4 positive. Format: cell-based. As to the method:
(§1) Then the level of secreted of IL-4 is measured in the culture supernatant using electrochemiluminescence (MSD kits, Meso Scale Discovery), IL-2 is measured by proximity homogenous time-resolved fluorescence (HTRF) and the amount of living cells is measured by addition of resazurin (PrestoBlue®) to allow identifying compounds that inhibit T-cell proliferation or viability.
(§2) • Remove plates from incubation and equilibrate to room temperature for 30 minutes. • IL-4 concentration in 10 μL supernatant is measured using an MSD IL-4 384-plate kit (Custom made) according to manufacturer protocol. • IL-2 concentrations in the supernatant is measured by an IL-2 HTRF kit, CisBio, cat. No 62HIL02PEH. • Add 4 μL medium to white proxi 384-well plates • Add 1 μL supernatant. • Add 4 μL mHTRF mix (each diluted 1:300 in ⅔ reconstitution buffer and ⅓ assay medium). • Spin the plates for 1 minute at 170 g • Seal and incubate overnight and read fluorescence in a plate reader • The amount of viable cells is measured by PrestoBlue® reagent • Add 15 μL diluted PrestoBlue® reagent (resazurin) corresponding to 2.5 μL Prestoblue/well to the assay plate. • Incubate overnight at 37° C./5% CO2. The fluorescence in the wells is measured (Ex615/Em 535).
(§3) The level of living cells in the wells is measured by the addition of PrestoBlue® and the conversion of Resazurin to Resorufin (fluorescent) in living cells is measured.
(§4) The effect of the test compounds on viability/proliferation is normalized to the PrestoBlue signal in the negative control wells treated with a toxic compound, Terfenadine.

Test in series [3]: as above
Format: cell-based, human. As to conditions: human, human CD4-positive T-cells. Here is the method:
as §1, §2, §3, §4

In another series the test system is Pancreatic MIA PaCa-2. As to the kind of experiment: CellTiter Glo cell viability assay. Format: cell-based, human. The procedure, abridged:
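MIA PaCa-2 human pancreatic cancer cells were plated in 96-well plates, 1.7*10^3 cells/well in quadruplicate, and compounds were added as serial dilutions to build dose-response curves. Viability was read by CellTiter Glo Luminescence (Promega) on a Varioskan LUX reader. Relative luminescence was plotted against log dose, and IC50 was obtained by nonlinear regression in GraphPad Prism 7.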

Setting [4] is: half maximal effective concentration relative to control, inhibition of CCL2 release, keratinocytes, read-out: Abs EC50: CCL2 (1280).
The mark [5] stands for this setting: cell viability in T-cell IL-2 & IL-4 assay, read-out: Abs EC50: Viab (1299).
Setting [6] is: maximum reduction of cell viability in T-cell IL-2 & IL-4 assay, read-out: Max Eff.: Viab (1299).
Setting [7] is: read-out: EC50, inhibition of keratinocyte CCL2 secretion.
Setting [8] is: T-cell IL-2 & IL-4 assay, read-out: EC50, cell viability.
Setting [9] is: T-cell IL-2 & IL-4 assay, read-out: maximum reduction of cell viability.
Where [10] appears, read: Homo sapiens, MIA PaCa-2, MIA PaCa-2/CRL-1420, 11 dilutions 3-0.00001 μM, Table 6, read-out: IC50.
Where [11] appears, read: Homo sapiens, MIA PaCa-2, Table 5A: 11 dilutions 3-0.00001 μM, average of experiments, read-out: IC50 average.
Where [12] appears, read: Homo sapiens, MIA PaCa-2, Table 5A: 11 dilutions 3-0.00001 μM, single experiments Exp E-K, read-out: IC50.
The mark [13] stands for this setting: Table 5A: 11 dilutions 3-0.00001 μM, single experiments Exp E-K, read-out: IC50.
Where [14] appears, read: Homo sapiens, MIA PaCa-2, 72 h, 3 Days of treatment, 18 2-fold dilutions 5-0.00003 μM, read-out: Average IC50.
[15] abbreviates: Homo sapiens, MIA PaCa-2, 72 h, Table 4: 3 Days of treatment, 18 2-fold dilutions 5-0.00003 μM, Average (1, 8) or single Exp A-D, read-out: IC50.
[16] abbreviates: Homo sapiens, MIA PaCa-2, 120 h, Day 5 upon drug treatment, 10 dosages 0.0001-20 μM (Compound 8: 18 dosages 0.000038146 to 5 μM), read-out: IC50.

Consider `CCOc1cc(O)cc(/C=C/c2ccc(NC(=O)C(=O)O)c(OC)c2)c1CC=C(C)C` [Compound 35, (E)-2-((4-(3-Ethoxy-5-hydroxy-2-(3-methylbut-2-en-1-yl)styryl)-2-methoxyphenyl)amino)-2-oxoacetic acid], for which the EC50 in series [1] (setting [4]) stood at 1130 nM; in series [2] (setting [5]), 5000 nM. Also, the “Max Eff.: CCL2 (1280)” value in series [1] is reported as 79%. Moreover, the cytotoxicity in series [3] (setting [6]) is 7%.
For the molecule `COc1cc(/C=C/c2cc(O)cc(OC)c2CC=C(C)C)ccc1NC=O` [Compound 27, (E)-N-(4-(5-hydroxy-3-methoxy-2-(3-methylbut-2-en-1-yl)styryl)-2-methoxyphenyl)formamide], the EC50 is 32 nM in series [1] (setting [4]), 32 nM in series [1] (setting [7]), 4350 nM in series [2] (setting [8]) and 4350 nM in series [2] (setting [5]). Further, the Emax in series [1] turned out to be 100%. Moreover, in series [1], the “Max Eff.: CCL2 (1280)” value is listed as 100%. Besides, the cytotoxicity in series [3] (setting [9]) was 52%. Further, the IC50 with Pancreatic MIA PaCa-2 (setting [10]) was 21.4 nM; in the series with Pancreatic MIA PaCa-2 (setting [11]), 15 nM; in the series on Pancreatic MIA PaCa-2 (setting [12]), 10 to 100 nM; in the series on Pancreatic MIA PaCa-2 (setting [13]), 14.7 nM and 13.4 nM and 16.8 nM. For the same molecule, the “Fold more potent than 1 [KYN-001]” value in the series with Pancreatic MIA PaCa-2 (MIA PaCa-2 cells) is on record as “approximately 5”.
Turning to `CCOc1cc(O)cc(/C=C/c2ccc(NC=O)c(OC)c2)c1CC=C(C)C` [Compound 28, (E)-N-(4-(3-Ethoxy-5-hydroxy-2-(3-methylbut-2-en-1-yl)styryl)-2-methoxyphenyl)formamide], the “reduction of CCL2 release, in words” value in series [1] is listed as “medium potency reduction of CCL2 release”. Besides, the EC50 in series [1] (setting [4]) worked out at 40 nM; in series [1] (setting [7]) it was 40 nM; in series [2] (setting [8]), 2360 nM; in series [2] (setting [5]), 2360 nM. Also, in series [1], the Emax worked out at 100%. Further, the “Max Eff.: CCL2 (1280)” value in series [1] came out at 100%. Further, the cytotoxicity in series [3] (setting [9]) worked out at 60%. For the same molecule, the IC50 is 12.9 nM in the series on Pancreatic MIA PaCa-2 (setting [10]); less than 1 nM in the series with Pancreatic MIA PaCa-2 (setting [12]); 0.94 nM and 0.936 nM in the series on Pancreatic MIA PaCa-2 (setting [13]).
With `CCOc1cc(O)cc(/C=C/c2ccc(O)c(OC)c2)c1CC=C(C)C` [Compound 8, (E)-3-Ethoxy-5-(4-hydroxy-3-methoxystyryl)-4-(3-methylbut-2-en-1-yl)phenol], the 50% effective concentration (EC50) in series [1] (setting [4]) is 50 nM; in series [2] (setting [5]), 5000 nM. Besides, in series [1], the “Max Eff.: CCL2 (1280)” value is on record as 102%. Besides, the cytotoxicity in series [3] (setting [6]) was 46%. In addition, the IC50 with Pancreatic MIA PaCa-2 (setting [14]) was 18.1 nM; in the series on Pancreatic MIA PaCa-2 (setting [15]), 210 nM; in the series on Pancreatic MIA PaCa-2 (setting [16]), approximately 0.47 nM; in the series with Pancreatic MIA PaCa-2 (setting [10]), 23.4 nM; in the series with Pancreatic MIA PaCa-2 (setting [11]), 25 nM; with Pancreatic MIA PaCa-2 (Table 5A: 11 dilutions 3-0.00001 μM, average of experiments, read-out: IC50 average) it was 25.5 nM. Moreover, in the series with Pancreatic MIA PaCa-2 (IC50 of 1 [KYN-001] vs 8 [KYN-119], 3 Days), the “Fold IC50” value came out at 7.0.
Regarding `CCOc1cc(O)cc(/C=C/c2ccc(O)c(O)c2)c1CC=C(C)C` [Compound 20, (E)-4-(3-Ethoxy-5-hydroxy-2-(3-methylbut-2-en-1-yl)styryl)benzene-1,2-diol], the values for the EC50 in series [1] (setting [4]) and in series [2] (setting [5]) were 108 nM and 5000 nM, respectively. For the same molecule, the “Max Eff.: CCL2 (1280)” value in series [1] is on record as 99%. Moreover, the cytotoxicity in series [3] (setting [6]) was determined as 15%. The half-inhibitory concentration (IC50) with Pancreatic MIA PaCa-2 (setting [10]) turned out to be 54.9 nM.
Turning to `COc1cc(/C=C/c2cc(O)cc(OC)c2CC=C(C)C)ccc1O` [Compound 1, (E)-3-(4-hydroxy-3-methoxystyryl)-5-methoxy-4-(3-methylbut-2-en-1-yl)phenol], the concentration for a half-maximal effect (EC50) in series [1] (setting [4]) turned out to be 123 nM; in series [2] (setting [5]), 5000 nM. Moreover, the “Max Eff.: CCL2 (1280)” value in series [1] turned out to be 101%. The cytotoxicity in series [3] (setting [6]) stood at 35%. Besides, the IC50 with Pancreatic MIA PaCa-2 (setting [14]) was 127 nM; in the series on Pancreatic MIA PaCa-2 (Homo sapiens, MIA PaCa-2, 72 h, Day 3 upon drug treatment, 10 dosages 0.0001-20 μM, read-out: IC50) it was 204 nM; in the series on Pancreatic MIA PaCa-2 (setting [15]) it was 888 nM; with Pancreatic MIA PaCa-2 (setting [16]) it was 50.7 nM; with Pancreatic MIA PaCa-2 (setting [10]) it was 109 nM; in the series with Pancreatic MIA PaCa-2 (setting [11]), 80.6 nM.
As to `COc1cc(/C=C/c2cc(O)cc(OC)c2CC=C(C)C)ccc1NC(=O)CN` [Compound 31, (E)-2-amino-N-(4-(5-hydroxy-3-methoxy-2-(3-methylbut-2-en-1-yl)styryl)-2-methoxyphenyl)acetamide], the EC50 was found to be 445 nM in series [1] (setting [4]) and 5000 nM in series [2] (setting [5]). Further, the “Max Eff.: CCL2 (1280)” value in series [1] turned out to be 100%. Besides, in series [3] (setting [6]), the cytotoxicity was found to be 19%. Also, the IC50 with Pancreatic MIA PaCa-2 (setting [12]) was 3180 nM.
